Test results taken from US9371280B2, “Substituted pyrrolidine-2-carboxamides” (Hoffmann-La Roche Inc., priority 2012, dated 2016).
Counter-ions that a name gives are not always drawn. Like-named read-outs stand apart in the source and are kept apart here.

Molecular target: interaction between p53 and MDM2 proteins (recombinant GST-tagged MDM2) (Homo sapiens, UniProt Q00987)
Assay: HTRF assay of inhibition of the p53-MDM2 interaction (GST-MDM2 / biotinylated p53 peptide);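 also: FRET read-out from Eu-labelled anti-GST antibody to streptavidin-APC, with 90 nM N-terminally biotinylated p53 peptide and 160 ng/ml GST-MDM2 in Tris-borate saline containing 1 mM DTT, 384-well format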
Type: binding

interaction between p53 and MDM2 proteins (recombinant GST-tagged MDM2), sequence (Q00987 whole entry): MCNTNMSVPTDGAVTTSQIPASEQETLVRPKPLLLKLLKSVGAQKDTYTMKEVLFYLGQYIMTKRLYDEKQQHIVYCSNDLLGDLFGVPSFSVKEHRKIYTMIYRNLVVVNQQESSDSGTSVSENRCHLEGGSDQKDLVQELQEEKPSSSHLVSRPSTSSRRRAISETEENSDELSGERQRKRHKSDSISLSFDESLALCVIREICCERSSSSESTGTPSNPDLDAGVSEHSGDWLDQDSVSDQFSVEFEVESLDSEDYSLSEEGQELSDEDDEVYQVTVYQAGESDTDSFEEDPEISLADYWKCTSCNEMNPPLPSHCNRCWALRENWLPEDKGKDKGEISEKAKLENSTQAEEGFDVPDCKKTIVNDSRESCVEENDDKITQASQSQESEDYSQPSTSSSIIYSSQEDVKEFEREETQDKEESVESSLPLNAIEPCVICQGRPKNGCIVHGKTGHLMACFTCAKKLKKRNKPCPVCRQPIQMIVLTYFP

SMILES	IC50 (HTRF, 0.02% BSA, 37° C. 1 h) [nM]	IC50 [nM]
COc1cc(C(=O)OCC(=O)N(C)C)ccc1NC(=O)[C@@H]1N[C@@H](CC(C)(C)C)[C@](C#N)(c2ccc(Cl)cc2F)[C@H]1c1cccc(Cl)c1F [Example 24, 4-{[(2R,3S,4R,5S)-4-(4-Chloro-2-fluoro-phenyl)-3-(3-chloro-2-fluoro-phenyl)-4-cyano-5-(2,2-dimethyl-propyl)-pyrrolidine-2-carbonyl]-amino}-3-methoxy-benzoic acid dimethylcarbamoylmethyl ester, hydrochloride]	13.9	–
COc1cc(C(=O)OCC(C)N2CCOCC2)ccc1NC(=O)[C@@H]1N[C@@H](CC(C)(C)C)[C@](C#N)(c2ccc(Cl)cc2F)[C@H]1c1cccc(Cl)c1F (stereo partly drawn) [Example 25, 4-{[(2R,3S,4R,5S)-4-(4-Chloro-2-fluoro-phenyl)-3-(3-chloro-2-fluoro-phenyl)-4-cyano-5-(2,2-dimethyl-propyl)-pyrrolidine-2-carbonyl]-amino}-3-methoxy-benzoic acid 2-morpholin-4-yl-propyl ester, hydrochloride]	15.5	–
COc1cc(C(=O)NCCN2CCN(C)CC2)ccc1NC(=O)[C@@H]1N[C@@H](CC(C)(C)C)[C@](C#N)(c2ccc(Cl)cc2F)[C@H]1c1cccc(Cl)c1F [Example 26, (2R,3S,4R,5S)-4-(4-Chloro-2-fluoro-phenyl)-3-(3-chloro-2-fluoro-phenyl)-4-cyano-5-(2,2-dimethyl-propyl)-pyrrolidine-2-carboxylic acid {2-methoxy-4-[2-(4-methyl-piperazin-1-yl)-ethylcarbamoyl]-phenyl}-amide, hydrochloride]	8.67	–
COc1cc(C(=O)N(C)C)ccc1NC(=O)[C@@H]1N[C@@H](CC(C)(C)C)[C@](C#N)(c2ccc(Cl)cc2F)[C@H]1c1cccc(Cl)c1F [Example 27, (2R,3S,4R,5S)-4-(4-Chloro-2-fluoro-phenyl)-3-(3-chloro-2-fluoro-phenyl)-4-cyano-5-(2,2-dimethyl-propyl)-pyrrolidine-2-carboxylic acid (4-dimethylcarbamoyl-2-methoxy-phenyl)-amide]	12.9	–
COc1cc(C(=O)OC[C@H](O)[C@@H](O)[C@H](O)[C@H](O)CO)ccc1NC(=O)[C@@H]1N[C@@H](CC(C)(C)C)[C@](C#N)(c2ccc(Cl)cc2F)[C@H]1c1cccc(Cl)c1F [Example 28, 4-{[(2R,3S,4R,5S)-4-(4-Chloro-2-fluoro-phenyl)-3-(3-chloro-2-fluoro-phenyl)-4-cyano-5-(2,2-dimethyl-propyl)-pyrrolidine-2-carbonyl]-amino}-3-methoxy-benzoic acid (2S,3R,4R,5R)-2,3,4,5,6-pentahydroxy-hexyl ester]	6.02	–
COc1cc(C(=O)OCCOC(=O)CNC(=O)OC(C)(C)C)ccc1NC(=O)[C@@H]1N[C@@H](CC(C)(C)C)[C@](C#N)(c2ccc(Cl)cc2F)[C@H]1c1cccc(Cl)c1F [Example 29, 4-{[(2R,3S,4R,5S)-4-(4-Chloro-2-fluoro-phenyl)-3-(3-chloro-2-fluoro-phenyl)-4-cyano-5-(2,2-dimethyl-propyl)-pyrrolidine-2-carbonyl]-amino}-3-methoxy-benzoic acid 2-(2-tert-butoxycarbonylamino-acetoxy)-ethyl ester]	16.7	–
COc1cc(C(=O)OCCOC(=O)CN)ccc1NC(=O)[C@@H]1N[C@@H](CC(C)(C)C)[C@](C#N)(c2ccc(Cl)cc2F)[C@H]1c1cccc(Cl)c1F [Example 30, 4-{[(2R,3S,4R,5S)-4-(4-Chloro-2-fluoro-phenyl)-3-(3-chloro-2-fluoro-phenyl)-4-cyano-5-(2,2-dimethyl-propyl)-pyrrolidine-2-carbonyl]-amino}-3-methoxy-benzoic acid 2-(2-amino-acetoxy)-ethyl ester]	17.2	–
COc1cc(C(=O)OCCOC(=O)CN(C)C(=O)OC(C)(C)C)ccc1NC(=O)[C@@H]1N[C@@H](CC(C)(C)C)[C@](C#N)(c2ccc(Cl)cc2F)[C@H]1c1cccc(Cl)c1F [Example 31, 4-{[(2R,3S,4R,5S)-4-(4-Chloro-2-fluoro-phenyl)-3-(3-chloro-2-fluoro-phenyl)-4-cyano-5-(2,2-dimethyl-propyl)-pyrrolidine-2-carbonyl]-amino}-3-methoxy-benzoic acid 2-[2-(tert-butoxycarbonyl-methyl-amino)-acetoxy]-ethyl ester]	13.7	–
CNCC(=O)OCCOC(=O)c1ccc(NC(=O)[C@@H]2N[C@@H](CC(C)(C)C)[C@](C#N)(c3ccc(Cl)cc3F)[C@H]2c2cccc(Cl)c2F)c(OC)c1 [Example 32, 4-{[(2R,3S,4R,5S)-4-(4-Chloro-2-fluoro-phenyl)-3-(3-chloro-2-fluoro-phenyl)-4-cyano-5-(2,2-dimethyl-propyl)-pyrrolidine-2-carbonyl]-amino}-3-methoxy-benzoic acid 2-(2-methylamino-acetoxy)-ethyl ester, hydrochloride]	16.4	–
COc1cc(C(=O)OCCOC(=O)[C@@H](NC(=O)[C@H](C)N(C)C(=O)OC(C)(C)C)C(C)C)ccc1NC(=O)[C@@H]1N[C@@H](CC(C)(C)C)[C@](C#N)(c2ccc(Cl)cc2F)[C@H]1c1cccc(Cl)c1F [Example 33, 4-{[(2R,3S,4R,5S)-4-(4-Chloro-2-fluoro-phenyl)-3-(3-chloro-2-fluoro-phenyl)-4-cyano-5-(2,2-dimethyl-propyl)-pyrrolidine-2-carbonyl]-amino}-3-methoxy-benzoic acid 2-[(S)-3-methyl-2-((S)-2-tert-butoxycarbonyl-methylamino-propionylamino)-butyryloxy]-ethyl ester]	19.9	–
COC(=O)COC(=O)c1ccc(NC(=O)[C@@H]2N[C@@H](CC(C)(C)C)[C@](C#N)(c3ccc(Cl)cc3F)[C@H]2c2cccc(Cl)c2F)c(OC)c1 [Example 35, 4-{[(2R,3S,4R,5S)-4-(4-Chloro-2-fluoro-phenyl)-3-(3-chloro-2-fluoro-phenyl)-4-cyano-5-(2,2-dimethyl-propyl)-pyrrolidine-2-carbonyl]-amino}-3-methoxy-benzoic acid methoxycarbonylmethyl ester]	12.5	–
COc1cc(C(=O)OCCCC(=O)O)ccc1NC(=O)[C@@H]1N[C@@H](CC(C)(C)C)[C@](C#N)(c2ccc(Cl)cc2F)[C@H]1c1cccc(Cl)c1F [Example 36, 4-{[(2R,3S,4R,5S)-4-(4-Chloro-2-fluoro-phenyl)-3-(3-chloro-2-fluoro-phenyl)-4-cyano-5-(2,2-dimethyl-propyl)-pyrrolidine-2-carbonyl]-amino}-3-methoxy-benzoic acid 3-carboxy-propyl ester]	–	4.98
COc1cc(C(=O)OCCC(=O)OC(C)(C)C)ccc1NC(=O)[C@@H]1N[C@@H](CC(C)(C)C)[C@](C#N)(c2ccc(Cl)cc2F)[C@H]1c1cccc(Cl)c1F [Example 37, 4-{[(2R,3S,4R,5S)-4-(4-Chloro-2-fluoro-phenyl)-3-(3-chloro-2-fluoro-phenyl)-4-cyano-5-(2,2-dimethyl-propyl)-pyrrolidine-2-carbonyl]-amino}-3-methoxy-benzoic acid 2-tert-butoxycarbonyl-ethyl ester]	16	–
COc1cc(C(=O)OCCC(=O)O)ccc1NC(=O)[C@@H]1N[C@@H](CC(C)(C)C)[C@](C#N)(c2ccc(Cl)cc2F)[C@H]1c1cccc(Cl)c1F [Example 38, 4-{[(2R,3S,4R,5S)-4-(4-Chloro-2-fluoro-phenyl)-3-(3-chloro-2-fluoro-phenyl)-4-cyano-5-(2,2-dimethyl-propyl)-pyrrolidine-2-carbonyl]-amino}-3-methoxy-benzoic acid 2-carboxy-ethyl ester]	10.2	–
COc1cc(C(=O)NN)ccc1NC(=O)[C@@H]1N[C@@H](CC(C)(C)C)[C@](C#N)(c2ccc(Cl)cc2F)[C@H]1c1cccc(Cl)c1F [Example 39, (2R,3S,4R,5S)-4-(4-Chloro-2-fluoro-phenyl)-3-(3-chloro-2-fluoro-phenyl)-4-cyano-5-(2,2-dimethyl-propyl)-pyrrolidine-2-carboxylic acid (4-hydrazinocarbonyl-2-methoxy-phenyl)-amide]	36.5	–
COc1cc(C(=O)O[C@@H]2O[C@H](C(=O)O)[C@@H](O)[C@H](O)[C@H]2O)ccc1NC(=O)[C@@H]1N[C@@H](CC(C)(C)C)[C@](C#N)(c2ccc(Cl)cc2F)[C@H]1c1cccc(Cl)c1F [Example 40, (2S,3S,4S,5R,6S)-6-(4-{[(2R,3S,4R,5S)-4-(4-Chloro-2-fluoro-phenyl)-3-(3-chloro-2-fluoro-phenyl)-4-cyano-5-(2,2-dimethyl-propyl)-pyrrolidine-2-carbonyl]-amino}-3-methoxy-benzoyloxy)-3,4,5-trihydroxy-tetrahydro-pyran-2-carboxylic acid; compound with trifluoro-acetic acid]	6.2	–
COc1cc(C(=O)OC[C@H]2O[C@@H](O)[C@H](O)[C@@H](O)[C@@H]2O)ccc1NC(=O)[C@@H]1N[C@@H](CC(C)(C)C)[C@](C#N)(c2ccc(Cl)cc2F)[C@H]1c1cccc(Cl)c1F [Example 41, 4-{[(2R,3S,4R,5S)-4-(4-Chloro-2-fluoro-phenyl)-3-(3-chloro-2-fluoro-phenyl)-4-cyano-5-(2,2-dimethyl-propyl)-pyrrolidine-2-carbonyl]-amino}-3-methoxy-benzoic acid (2R,3S,4S,5R,6R)-3,4,5,6-tetrahydroxy-tetrahydro-pyran-2-ylmethyl ester; compound with trifluoro-acetic acid]	6.95	–
COc1cc(C(=O)OCCOCCOCCOCCOCCOCCOCCOCCO)ccc1NC(=O)[C@@H]1N[C@@H](CC(C)(C)C)[C@](C#N)(c2ccc(Cl)cc2F)[C@H]1c1cccc(Cl)c1F [Example 42, 4-{[(2R,3S,4R,5S)-4-(4-Chloro-2-fluoro-phenyl)-3-(3-chloro-2-fluoro-phenyl)-4-cyano-5-(2,2-dimethyl-propyl)-pyrrolidine-2-carbonyl]-amino}-3-methoxy-benzoic acid, 2-(2-{2-[2-(2-{2-[2-(2-hydroxy-ethoxy)-ethoxy]-ethoxy}-ethoxy)-ethoxy]-ethoxy}-ethoxy)-ethyl ester, trifluoroacetate salt]	22.2	–
COc1cc(C(=O)OCCOCCN(C)C)ccc1NC(=O)[C@@H]1N[C@@H](CC(C)(C)C)[C@](C#N)(c2ccc(Cl)cc2F)[C@H]1c1cccc(Cl)c1F [Example 46, 4-{[(2R,3S,4R,5S)-4-(4-Chloro-2-fluoro-phenyl)-3-(3-chloro-2-fluoro-phenyl)-4-cyano-5-(2,2-dimethyl-propyl)-pyrrolidine-2-carbonyl]-amino}-3-methoxy-benzoic acid 2-(2-dimethylamino-ethoxy)-ethyl ester, hydrochloride]	14.2	–
